{"source": "patent US20260130894A1", "about": "“COMPOSITION COMPRISING ISOQUINOLINE DERIVATIVE AS ACTIVE INGREDIENT FOR PREVENTION OR TREATMENT OF PARKINSON'S DISEASE” (ALTMEDICAL CO., LTD., priority 2022, published 2026)", "key": {"BEAS-2B cell line [1]": {"test_system": "BEAS-2B cell line", "experiment": "Autophagy activity in BEAS-2B cells expressing Keima (confocal microscope)", "type": "cell-based, human", "conditions": "15 μM, 18 hours (FIG. 4B)", "procedure": "(§1) It was confirmed whether CD1-012 synthesized in Example 1 specifically increases only mitophagy activity. To this end, the BEAS-2B cell line expressing mt-Keima was treated with CD1-012 (15 μM) or Comparative Example 1 (CCCP, 10 μM) for 18 hours, and mitophagy activity was analyzed using a confocal microscope. Additionally, to measure autophagy activity, the BEAS-2B cell line expressing Keima fluorescent protein was incubated in Hanks' balanced salt solution (HBSS) for 3 hours to induce a starvation condition (starv.), and the results were compared with samples treated with CD1-012 (15 μM) for 18 hours using a confocal microscope."}, "[2]": {"test_system": "human nerve cell line H-SY5Y", "experiment": "Mitochondrial function in sporadic Parkinson's disease cell model (MPP+ or 6-OHDA)", "type": "cell-based", "conditions": "CD1-012 20 μM one day", "procedure": "Sporadic Parkinson's disease has progressive motor/non-motor dysfunction symptoms, and most patients with Parkinson's disease have this disease. In this example, the therapeutic effect of CD1-012 on sporadic Parkinson's disease was confirmed. To this end, after a sporadic Parkinson's disease cell model was manufactured by treating a human nerve cell line H-SY5Y with the neurotoxins MPP+(62.5 μM) and 6-OHDA (40 μM) for two days, the cell model was treated with CD1-012 (20 μM) for one day and then the membrane potential and ATP production capacity of mitochondria were analyzed after two days."}, "[3]": {"test_system": "mouse model of Parkinson's disease established by injecting MPTP", "experiment": "Motor performance (pole test, Rota-rod test) in MPTP mouse model of Parkinson's disease", "type": "in vivo", "procedure": "In this example, the effect of the compound of the present invention (CD1-012) on treating Parkinson's disease was confirmed using a mouse model of Parkinson's disease. To this end, a mouse model of Parkinson's disease established by injecting the neurotoxin, 1-methyl-4-phenyl-1,2,3,6-tetrahydropyridine (MPTP), was used. After nasal administration of CD1-012 at a concentration of 1 mg/kg daily for 2 weeks to the mouse model, motor performance was analyzed using the pole test and Rota-rod test (FIG. 11A)."}, "SH-SY5Y cell line": {"test_system": "SH-SY5Y cell line", "experiment": "Mitophagy activity in SH-SY5Y cells expressing mt-Keima (FACS)", "type": "cell-based, human", "conditions": "FACS (FIG. 2A)", "procedure": "It was confirmed whether CD1-012 synthesized in Example 1 increases mitophagy activity in various cell lines. To this end, CD1-012 and Comparative Example 1 (CCCP) were treated in the SH-SY5Y cell line, a human neuroblastoma cell line expressing mt-Keima fluorescent protein, and in the HeLa-Parkin cell line, a HeLa cervical cancer cell line expressing Parkin (E3 ligase). Following this treatment, the mitophagy activity of each sample was analyzed using flow cytometry (FACS), and the results are shown in FIGS. 2A to 2B."}, "[4]": {"test_system": "mitochondrial reactive oxygen species (ROS)", "experiment": "Mitochondrial reactive oxygen species, MitoSOX assay", "type": "cell-based", "conditions": "CD1-012 10 μM or 15 μM, CCCP 10 μM, 24 hours (FIG. 6)", "procedure": "(§2) It was confirmed whether the isoquinoline derivative according to the present invention induces mitochondrial dysfunction, similar to CCCP. To this end, the CD1-012 (10 μM or 15 μM) and CCCP (10 μM) were treated for 24 hours, and the mitochondrial membrane potential and mitochondrial reactive oxygen species (ROS) levels in each sample were analyzed. Mitochondrial membrane potential was analyzed using the TMRM (tetramethylrhodamine methyl ester) assay, and mitochondrial ROS levels were analyzed using the MitoSOX assay."}, "[5]": {"test_system": "mitochondrial membrane potential", "experiment": "Mitochondrial membrane potential, TMRM assay", "type": "cell-based", "conditions": "CD1-012 10 μM or 15 μM, CCCP 10 μM, 24 hours (FIG. 6)", "procedure": "as §2"}, "[6]": {"test_system": "BEAS-2B cell line, in which PINK1 was knocked down", "experiment": "Mitophagy activity in PINK1 knockdown (shPINK1) BEAS-2B cells (FACS)", "type": "cell-based, human", "excerpt": "In this example, it was confirmed whether the mitophagy activation function of the isoquinoline derivative according to the present invention is dependent on the PINK1-Parkin pathway. […]\nIn the following example, it was confirmed whether the novel isoquinoline derivative according to the present invention has a therapeutic effect of preventing or improving Parkinson's disease. Most of all, it was confirmed whether the treatment with the isoquinoline derivative improves mitochondrial dysfunction of a Parkinson's disease cell model. To this end, first, the induction of mitophagy by CD1-012 was verified. […] In addition, to analyze whether the mitophagy-promoting activity of CD1-012 is dependent on PINK1, PINK1 expression was inhibited (using shPNIK1) in BEAS-2B cells, which is a human normal lung cell line expressing a mitochondrial fluorescent protein, and mitophagy activity was analyzed by flow cytometry (FACS)."}, "[7]": {"test_system": "wild type (WT) and PINK1-deficient (PINK1−/−) mouse embryonic fibroblasts (MEFs)", "experiment": "Mitochondrial protein Cox2 level by western blotting in WT and PINK1-deficient MEFs", "type": "cell-based", "conditions": "40 μM, 24 hours (FIG. 8A)"}, "BEAS-2B cell line [8]": {"test_system": "BEAS-2B cell line", "experiment": "Mitophagy activity in BEAS-2B cells expressing mt-Keima (FACS, confocal microscope, mito-YFP)", "type": "cell-based, human", "procedure": "To analyze the mitophagy-promoting activity effect of the CD1-012 synthesized in the Example 1, the BEAS-2B cell line, which is a human normal lung cell line, was induced to express the mt-Keima fluorescent protein. Following this, the CD1-012 (15 μM) and the compound of Comparative Example 1, CCCP (10 μM), were treated for 24 hours. After the treatment, the mitophagy activity of each sample was measured, and the results were represented in FIGS. 1A to 1C.\nSpecifically, FIG. 1A represents the analysis results using flow cytometry (FACS) (treatment of CD1-012 at 15 μM for 24 hours), FIG. 1B represents the analysis results using a confocal microscope (treatment of CD1-012 at 15 μM for 18 hours), and FIG. 1C represents the measurement results of the quantitative changes in the mitochondria using a fluorescent protein, mito-YFP, which includes a targeting sequence to transport protein to the mitochondria (treatment of CD1-012 at 20 μM for 24 hours).\nIt was confirmed whether CD1-012 synthesized in Example 1 promotes mitophagy activity in a concentration- and time-dependent manner. To this end, the CD1-012 was treated at various concentrations or at a fixed concentration (15 μM) for different treatment durations in the BEAS-2B cell line expressing mt-Keima, and mitophagy activity was measured using a flow cytometer.\nas §1\nTo this end, the human normal lung cell line BEAS-2B, expressing mt-Keima fluorescent protein, was treated with CD1-012, Comparative Example 2 (palmatine), or Comparative Example 3 (berberine) at various concentrations, and the mitophagy-inducing activity of each sample was compared."}}}
{"compound": "Oc1cc2c(cc1O)-c1cc3ccc(O)c(O)c3c[n+]1CC2", "note": "[CD1-012, 2,3,9,10-tetrahydroxy-5,6-dihydroisoquinolino[3,2-a]isoquinolin-7-ium bromide]", "values": [{"measurement": "autophagy activity compared to the untreated control group", "setting": "BEAS-2B cell line [1]", "result": "no significant difference in autophagy activity"}, {"measurement": "mitochondrial membrane potential", "setting": "[2]; 6-OHDA (40 μM) model, analyzed after two days (FIG. 10B)", "result": "restored"}, {"measurement": "ATP synthesis capacity of mitochondria", "setting": "[2]; 6-OHDA (40 μM) model, analyzed after two days (FIG. 10D)", "result": "significantly restored"}, {"measurement": "mitochondrial membrane potential", "setting": "[2]; MPP+ (62.5 μM) model, analyzed after two days (FIG. 10A)", "result": "restored"}, {"measurement": "ATP synthesis capacity of mitochondria", "setting": "[2]; MPP+ (62.5 μM) model, analyzed after two days (FIG. 10C)", "result": "significantly restored"}, {"measurement": "pole test, motor performance (time to reach the ground)", "setting": "[3]; MPTP mice, nasal 1 mg/kg daily for 2 weeks (FIG. 11B)", "result": "recovered to a level equivalent to that of the normal control"}, {"measurement": "Rota-rod test, time spent on the cylinder", "setting": "[3]; MPTP mice, nasal 1 mg/kg daily for 2 weeks (FIG. 11C)", "result": "markedly recovered"}, {"measurement": "motor performance of normal mice administered CD1-012 alone compared to untreated normal control (toxicity)", "setting": "[3]; normal mice, CD1-012 alone", "result": "no significant difference in motor performance"}, {"measurement": "mitophagy activity compared to the control group (Con)", "setting": "SH-SY5Y cell line", "result": "significantly increased mitophagy activity"}, {"measurement": "mitochondrial ROS levels", "setting": "[4]", "result": "no increase in mitochondrial ROS was detected"}, {"measurement": "mitochondrial membrane potential", "setting": "[5]", "result": "no decrease in mitochondrial membrane potential was observed"}, {"measurement": "mitophagy-promoting activity compared with CCCP (10 μM)", "setting": "[6]; 20 μM, BEAS-2B, FACS (FIG. 8B)", "result": "mitophagy-promoting activity at a level similar to that of CCCP"}, {"measurement": "mitophagy-promoting activity when PINK1 gene expression was inhibited", "setting": "[6]; 20 μM, shPINK1 BEAS-2B, FACS (FIG. 8B)", "result": "mitophagy-promoting activity was not inhibited"}, {"measurement": "mitophagy activation in PINK1 knockdown cell line (shPINK1) compared to control cell line (shNT)", "setting": "[6]; CCCP 10 μM, CD1-012 15 μM, 18 hours (FIG. 7)", "result": "did not show a significant difference"}, {"measurement": "Cox2 protein level", "setting": "[7]", "result": "significantly decreased"}, {"measurement": "treatment time after which mitophagy activity began to significantly increase", "setting": "BEAS-2B cell line [8]; 15 μM (FIG. 3B)", "result": 3, "unit": "h"}, {"measurement": "treatment time at which mitophagy activity reached its maximum level", "setting": "BEAS-2B cell line [8]; 15 μM (FIG. 3B)", "result": 18, "unit": "h"}, {"measurement": "concentration at which mitophagy activity reached a level comparable to the maximum of palmatine and berberine", "setting": "BEAS-2B cell line [8]; BEAS-2B mt-Keima (FIG. 5)", "result": 10, "unit": "µM"}, {"measurement": "mitophagy-inducing activity relative to berberine", "setting": "BEAS-2B cell line [8]; BEAS-2B mt-Keima (FIG. 5)", "result": "approximately 8 times"}, {"measurement": "mitophagy-inducing activity relative to palmatine", "setting": "BEAS-2B cell line [8]; BEAS-2B mt-Keima (FIG. 5)", "result": "approximately 40 times"}, {"measurement": "concentration at which mitophagy activity began to significantly increase compared to untreated control", "setting": "BEAS-2B cell line [8]; BEAS-2B mt-Keima, flow cytometer (FIG. 3A)", "result": "≥ 7.5", "unit": "µM"}, {"measurement": "mitophagy activity compared to the untreated control group (Con)", "setting": "BEAS-2B cell line [8]; BEAS-2B mt-Keima, 15 μM 24 h (FACS), 15 μM 18 h (confocal), 20 μM 24 h (mito-YFP)", "result": "significant increase in mitophagy activity"}, {"measurement": "mitophagy-promoting effect compared with CCCP (confocal microscope)", "setting": "BEAS-2B cell line [8]; CD1-012 15 μM, CCCP 10 μM, 18 hours (FIG. 4A)", "result": "mitophagy-promoting effects similar to those observed in the CCCP-treated sample"}, {"measurement": "mitophagy activity compared with CCCP-treated sample (FIG. 1A)", "setting": "BEAS-2B cell line [8]; FACS, CD1-012 15 μM, CCCP 10 μM, 24 hours", "result": "increased as significantly as that of the sample treated with the representative mitophagy promoting compound, CCCP"}, {"measurement": "concentration dependence of mitophagy activity", "setting": "BEAS-2B cell line [8]; up to the maximum treatment concentration of 17.5 μM (FIG. 3A)", "result": "continued to increase in a concentration-dependent manner"}]}
